Measured values reported in publication PMC6792352, “Limited Chemical Structural Diversity Found to Modulate Thyroid Hormone Receptor in the Tox21 Chemical Library” (Environmental Health Perspectives, 2019).
Where a name gives a salt, the structure may show the parent alone.

Assay: in vitro
Conditions: rat, gh3-tre-luc cells, AC50 (uM) modified / 1000

SMILES | CC50 at 24 h
Cc1cc(O)c(Cl)c(C)c1Cl [2,4-Dichloro-3,5-dimethylphenol] | 56.9 µM
CC1(C)S[C@@H]2[C@H](NC(=O)C3(N)CCCCC3)C(=O)N2[C@H]1C(=O)O [Cyclacillin] | > 50 µM
Cc1nc(C)nc(N2C[C@@H](C)N(c3ccnc([C@@H](C)O)n3)[C@@H](C)C2)n1 [CP-642931] | > 50 µM
O=C(c1ccc2c(c1)C(=O)OC2=O)c1ccc2c(c1)C(=O)OC2=O [Benzophenonetetracarboxylic dianhydride] | > 90 µM
CC(C)=CCCC(C)=CC#N [Citralva] | > 90 µM
C=CCc1ccccc1OCC(O)CNC(C)C (stereo not drawn) [Alprenolol] | > 50 µM
Oc1cccc(O)c1O [Pyrogallol] | 44.6 µM
O=[N+]([O-])O[C@@H]1CO[C@H]2[C@@H]1OC[C@@H]2O [Isosorbide 5-mononitrate] | > 50 µM
Cc1cc(SC2=C(O)C[C@@](CCc3ccc(N)cc3)(C(C)C)OC2=O)c(C(C)(C)C)cc1CO [CI-1029] | > 90 µM
CC(C)(O)CCCC1=CCC(C=O)CC1 (stereo not drawn) [4-(4-Hydroxy-4-methylpentyl)cyclohex-3-ene-1-carbaldehyde] | > 100 µM
CNC(=O)NC [N,N'-Dimethylurea] | > 90 µM
c1ccc(C2(c3ccccc3)CC2C2=NCCN2)cc1 (stereo not drawn) [Cifenline succinate] | > 50 µM
CC1(C)CO[C@@H](CC(=O)O)CN1 [SCH 50911] | > 50 µM
Cc1c(O)c(=O)ccn1C [Deferiprone] | > 50 µM
CCOC(=O)[C@@H](N)CS [Ethyl L-cysteinate hydrochloride] | > 50 µM
O=C(O)c1cccc(/C=C2/C[C@@H]3[C@@H](/C=C/[C@@H](O)C4CCCCC4)[C@H](O)C[C@@H]3O2)c1 [Taprostene sodium salt] | > 50 µM
CC1(C)Cc2cccc(O)c2O1 [2,3-Dihydro-2,2-dimethyl-7-benzofuranol] | > 100 µM
O=C1c2ccccc2CN2C(=O)c3ccccc3CN12 [Diftalone] | > 50 µM
CC(=O)C(C)C [3-Methyl-2-butanone] | > 100 µM
C1CCCNCCC1 [Heptamethyleneimine] | > 90 µM
O=C(N[C@H]1CN2CCC1CC2)c1cc2ccoc2cn1 [PHA-00543613] | > 90 µM

SMILES | CC50 at 24 h
N[C@@H](Cc1ccccc1)C(=O)O [Phenylalanine] | > 50 µM
CSc1ccc2c(c1)N(CCC1CCCCN1C)c1ccccc1S2 (stereo not drawn) [Thioridazine hydrochloride] | 7.04 µM
OCC(O)CO [Glycerol] | > 90 µM
O=S(=O)(Cl)c1c(Cl)cccc1Cl [2,6-Dichlorobenzenesulfonylchloride] | > 90 µM
CC(=O)O[C@@H]1C(=O)O[C@H]2[C@@H]1OC(=O)[C@@H]2OC(C)=O [Aceglatone] | > 50 µM
CCOS(C)(=O)=O [Ethyl methanesulfonate] | > 90 µM
COC(=O)[C@@H](N)CS [Methyl L-cysteinate hydrochloride] | > 50 µM
Cc1ccnc2ccccc12 [Lepidine] | > 90 µM
CCC(C)Nc1ccc(NC(C)CC)cc1 (stereo not drawn) [N,N'-Bis(1-methylpropyl)-1,4-benzenediamine] | 14 µM
O=c1nn[nH]c2ccccc12 [1,2,3-Benzotriazin-4(1H)-one] | > 90 µM
CC(C)c1ccc(C(C)C)cc1 [1,4-Diisopropylbenzene] | > 90 µM
C=CCN(CC=C)C(=O)C(Cl)Cl [Dichlormid] | > 90 µM
CO/N=C(\C(=O)N[C@@H]1C(=O)N2C(C(=O)[O-])=C(C[n+]3cccc4c3CCCC4)CS[C@H]12)c1csc(N)n1 [Cefquinome sulfate] | > 50 µM
Nc1cnn([C@@H]2O[C@H](CO)[C@@H](O)[C@H]2O)c(=O)n1 [6-Azacytidine] | > 90 µM
Cn1nnc2c(C(N)=O)ncn2c1=O [Temozolomide] | > 50 µM
Nc1ccc(N=Nc2ccccc2)cc1 [4-Aminoazobenzene] | > 90 µM
Fc1c(F)c(F)c(Br)c(F)c1F [Bromopentafluorobenzene] | > 90 µM
C1CCCCC1 [Cyclohexane] | > 90 µM
CC(C)(C)CC(C)(C)c1cc(Cc2cc(C(C)(C)CC(C)(C)C)cc(-n3nc4ccccc4n3)c2O)c(O)c(-n2nc3ccccc3n2)c1 [Bisoctrizole] | > 50 µM
CCC(C)SSC(C)CC (stereo not drawn) [Dibutan-2-yl disulfide] | > 90 µM
CCCCC(CC)CN1C(=O)[C@@H]2[C@H](C1=O)[C@@H]1C=C[C@H]2C1 (stereo partly drawn) [Octylbicycloheptenedicarboximide] | 53.7 µM

SMILES | CC50 at 24 h
CCCCCCOC(=O)CC(CC(=O)OCCCCCC)(OC(=O)CCC)C(=O)OCCCCCC [Butyryl trihexyl citrate] | > 90 µM
C[C@H](N)C(=O)N[C@@H](C)P(=O)(O)O [Alafosfalin] | > 50 µM
CC1(CN2CCC(n3c(=O)[nH]c4ccccc43)CC2)OCc2ccccc2-n2cccc21 (stereo not drawn) [Zaldaride] | 32.7 µM
N[C@@H](CSSC[C@H](N)C(=O)O)C(=O)O [L-Cystine] | > 50 µM
CCCCC/C=C/C/C=C/CCCCCCCC(=O)OCC [Ethyl linoleate] | > 50 µM
CC(C)(COP(=O)(O)OP(=O)(O)OC[C@H]1O[C@@H](n2cnc3c(N)ncnc32)[C@H](O)[C@@H]1OP(=O)(O)O)C(O)C(=O)NCCC(=O)NCCS (stereo partly drawn) [Coenzyme A trilithium dihydrate] | > 50 µM
COCCO [2-Methoxyethanol] | > 90 µM
CC(=O)N[C@@H](CCC(=O)O)C(=O)O [N-Acetyl-L-glutamic acid] | > 50 µM
CNC(=O)Nc1ccc(Cl)c(Cl)c1 [N-(3,4-Dichlorophenyl)-N'-methylurea] | > 90 µM
O=C1c2ccccc2S(=O)(=O)N1CCCCN1CCN(c2ncccn2)CC1 [Ipsapirone] | > 50 µM
Cc1cc(C(=C2C=CC(=Nc3ccc(S(=O)(=O)O)cc3)C=C2)c2ccc(Nc3ccc(S(=O)(=O)O)cc3)cc2)cc(S(=O)(=O)O)c1N [C.I. Acid Blue 22] | > 60 µM
CC(C)OCCO [2-Isopropoxyethanol] | > 90 µM
CC(C)Cc1ccc(CC(=O)O)cc1 [Ibufenac] | > 50 µM
CC1(O)CCC(C(C)(C)O)CC1 (stereo not drawn) [Terpin] | > 50 µM
Nc1ccn([C@@H]2CO[C@H](CO)O2)c(=O)n1 [Troxacitabine] | > 50 µM
CC(C)=CCl [2,2-Dimethylvinyl chloride] | > 90 µM
CC(N/C(=N\C#N)Nc1ccncc1)C(C)(C)C (stereo not drawn) [Pinacidil monohydrate] | > 50 µM
CC(C)c1ccc2sc3ccccc3c(=O)c2c1 [2-(Propan-2-yl)-9H-thioxanthen-9-one] | > 90 µM
O=C(O)COc1ccc(C(=O)c2cccs2)c(Cl)c1Cl [Ticrynafen] | > 50 µM
COc1cc(N)c(Cl)cc1C(=O)NC1CCN(Cc2ccccc2)CC1 [Clebopride maleate] | > 20 µM
CCCCCCOc1cc(C)c(O)c(C)c1C [1-O-Hexyl-2,3,5-trimethylhydroquinone] | 42.6 µM

SMILES | CC50 at 24 h
CCCCCCCCCCCCCC[P+](CCCCCC)(CCCCCC)CCCCCC [Trihexyltetradecylphosphonium chloride] | 5.15 µM
Cc1ccc([N+](=O)[O-])c(C)c1 [1,3-Dimethyl-4-nitrobenzene] | > 90 µM
C=CC(=O)OC(C)(C)C [tert-Butyl acrylate] | > 90 µM
C=C(C)C(=O)OCCCCCCCCCCCC [Dodecyl 2-methylacrylate] | > 90 µM
CCN(CC)CCNc1ccc(CO)c2sc3ccccc3c(=O)c12 [Hycanthone] | 2.88 µM
O=C(O)CCC(=O)c1ccc(-c2ccccc2)cc1 [Fenbufen] | > 20 µM
O=C(O)CCCCCCCCC(=O)O [Decanedioic acid] | > 90 µM
NC(=O)c1ccccc1N [2-Aminobenzamide] | > 90 µM
COCc1ccc(COC)cc1 [1,4-Bis(methoxymethyl)benzene] | > 90 µM
COC(=O)c1ccccc1S(=O)(=O)NC(=O)N(C)c1nc(C)nc(OC)n1 [Tribenuron-methyl] | > 100 µM
CC1OC(=O)C(C)OC1=O (stereo not drawn) [3,6-Dimethyl-2,5-dioxo-1,4-dioxane] | > 90 µM
CC(=O)[C@H]1CC[C@H]2[C@@H]3CC=C4C[C@@H](O)CC[C@]4(C)[C@H]3CC[C@]12C [Pregnenolone] | > 90 µM
Nc1c(Cl)c(F)nc(OCC(=O)O)c1Cl [Fluroxypyr] | > 90 µM
CC(c1ccc(O)cc1)(c1ccc(O)cc1)c1ccc(O)cc1 [4,4',4"-Ethane-1,1,1-triyltriphenol] | 55.5 µM
NS(=O)(=O)c1cc(C(=O)O)cc(N2CCCC2)c1Oc1ccccc1 [Piretanide] | > 20 µM
CC1CCC(CO)CC1 (stereo not drawn) [4-Methylcyclohexanemethanol] | > 90 µM
CCCCOCCOC(=O)COc1nc(Cl)c(Cl)cc1Cl [Triclopyr butotyl] | > 90 µM
CCCNC(=O)NS(=O)(=O)c1ccc(Cl)cc1 [Chlorpropamide] | > 90 µM
CCCCCCCCC(=O)NCc1ccc(O)c(OC)c1 [Nonivamide] | > 90 µM

Same assay, conditions: rat, gh3-tre-luc cells, AC50 (uM) modified / 1000, Tox21_110001=Tox21_112428; viability, 1 nM T3 present, 24 h

SMILES | CC50 at 24 h
CN1CCCC(=C(c2cccs2)c2cccs2)C1 [Tipepidine] | > 50 µM

Same assay, conditions: rat, gh3-tre-luc cells, AC50 (uM) modified / 1000, Tox21_110001=Tox21_113161; viability, 1 nM T3 present, 24 h

SMILES | CC50 at 24 h
C[C@]12CCC(=O)C=C1CC[C@@H]1[C@@H]2CC[C@@]2(C)[C@H]1CC[C@]2(C)O [17-Methyltestosterone] | > 50 µM

Same assay, conditions: rat, gh3-tre-luc cells, AC50 (uM) modified / 1000, Tox21_110001=Tox21_202019; viability, 1 nM T3 present, 24 h

SMILES | CC50 at 24 h
CCOC(=O)c1ccccc1N [Ethyl anthranilate] | > 90 µM

Same assay, conditions: rat, gh3-tre-luc cells, AC50 (uM) modified / 1000, Tox21_110001=Tox21_400058; viability, 1 nM T3 present, 24 h

SMILES | CC50 at 24 h
C[C@]12CCC(=O)C=C1CC[C@@H]1[C@@H]2CC[C@@]2(C)[C@H]1CC[C@]2(C)O [17-Methyltestosterone] | > 90 µM

Same assay, conditions: rat, gh3-tre-luc cells, AC50 (uM) modified / 1000, Tox21_110001=Tox21_400083; viability, 1 nM T3 present, 24 h

SMILES | CC50 at 24 h
O=S(=O)(O)C(F)(F)C(F)(F)C(F)(F)C(F)(F)C(F)(F)C(F)(F)C(F)(F)C(F)(F)F [Perfluorooctanesulfonic acid] | > 90 µM
